We go through one molecule from patent US20090264384A1, “INDOLE, BENZIMIDAZOLE, AND BENZOLACTAM BORONIC ACID COMPOUNDS, ANALOGS THEREOF AND METHODS OF USE THEREOF” (Nuada, Inc., priority 2004, published 2009).

One data set relates to TNF-α production by PMBC. The experiment in a line: Inhibition of TNF-α Production By Peripheral Blood Monocyte Cells (PMBC), LPS stimulated. In kind it is cell-based. As to conditions: 1 ug/mL LPS, 24 hours. The procedure: PMBC in RPMI 1640 Cell Culture Medium (containing 1% Penicillin and 1% Streptomycin) are aliquoted into 96-well plates at 5×10^5 cells/well and pre-incubated with test compounds for 30 minutes at 37° C. After incubation, 1 ug/mL LPS is added to each well to stimulate TNF-α production and the plate is incubated for 24 hours at 37° C. After incubation, the supernatant is removed and the TNF-α secreted is quantified using EIA detection kits commercially available from R&D Systems (USA). The results from this assay are expressed as percent inhibition of control activity, with the control being stimulated wells with no test compound. Dexamethasone is used as a standard reference compound in the assay and is tested with each experiment. All test compounds are diluted from 10 mM stock solutions in 100% DMSO.

Another data set has as its target HERG channel (Homo sapiens, UniProt Q12809). The experiment in a line: ADME-Tox: QT Prolongation, HERG (patch-clamp).
In a further data set the target is hERG (Homo sapiens, UniProt Q12809). The data set is described as follows: ADME-Tox: QT Prolongation, HERG (patch-clamp). As to conditions: human, HEK-293 cells stably expressing HERG. Background: In patch-clamp work, channel activity is measured electrically.
Sequence of hERG (Q12809 whole entry): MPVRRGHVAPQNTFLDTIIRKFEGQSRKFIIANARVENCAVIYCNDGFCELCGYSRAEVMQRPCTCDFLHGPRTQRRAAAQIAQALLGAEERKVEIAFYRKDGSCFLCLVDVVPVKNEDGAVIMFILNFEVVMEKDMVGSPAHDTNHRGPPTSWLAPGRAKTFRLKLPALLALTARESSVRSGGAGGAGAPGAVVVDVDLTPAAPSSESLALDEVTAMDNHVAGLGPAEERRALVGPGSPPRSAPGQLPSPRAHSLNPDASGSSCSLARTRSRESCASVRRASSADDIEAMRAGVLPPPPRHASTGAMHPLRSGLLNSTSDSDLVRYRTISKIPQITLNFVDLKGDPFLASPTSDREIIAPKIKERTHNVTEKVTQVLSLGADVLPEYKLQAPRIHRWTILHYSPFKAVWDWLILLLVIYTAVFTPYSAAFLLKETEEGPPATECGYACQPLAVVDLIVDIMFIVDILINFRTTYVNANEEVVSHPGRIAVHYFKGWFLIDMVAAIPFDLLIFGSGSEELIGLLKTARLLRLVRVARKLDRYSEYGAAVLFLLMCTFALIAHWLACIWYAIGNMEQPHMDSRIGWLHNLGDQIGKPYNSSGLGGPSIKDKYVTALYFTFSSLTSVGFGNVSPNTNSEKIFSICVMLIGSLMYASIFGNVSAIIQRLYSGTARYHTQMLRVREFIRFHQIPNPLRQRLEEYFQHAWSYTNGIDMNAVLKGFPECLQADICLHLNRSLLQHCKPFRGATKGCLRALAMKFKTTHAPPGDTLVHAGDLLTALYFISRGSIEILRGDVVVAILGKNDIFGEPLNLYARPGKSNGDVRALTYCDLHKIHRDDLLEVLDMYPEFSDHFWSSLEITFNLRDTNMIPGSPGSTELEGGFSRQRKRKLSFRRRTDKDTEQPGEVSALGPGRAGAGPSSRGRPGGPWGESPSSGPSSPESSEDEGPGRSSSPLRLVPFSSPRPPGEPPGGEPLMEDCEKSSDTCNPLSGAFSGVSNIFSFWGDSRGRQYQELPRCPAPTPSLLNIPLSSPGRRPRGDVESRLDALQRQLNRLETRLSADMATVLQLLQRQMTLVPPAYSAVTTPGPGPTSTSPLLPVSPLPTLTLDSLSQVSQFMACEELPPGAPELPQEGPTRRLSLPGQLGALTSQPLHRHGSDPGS
Data set [1] relates to arachidonic acid-induced ear edema. The data set is described as follows: Arachidonic acid-induced mouse ear edema model. The format is in vivo. As to conditions: for inhibition of the irritant-induced ear edema: thirty minutes prior to arachidonic acid challenge; for Change in Ear Weight (mg) Average / % Inhibition / Ear Weight (mg) Left (−AA) / Ear Weight (mg) Right (+AA): topical; for % Inhibition: change in ear weight vs vehicle; for Ear Weight (mg) Left (−AA) / Ear Weight (mg) Right (+AA): individual mice. The procedure:
This example was carried out in male BALB/c mice. 42 BALB/c mice (Harlan Sprague-Dawley, Inc., male, PO # 452036, R #2449, 5-6 weeks) were received, individually examined, and housed in four cages of ten mice each and one cage containing two mice. Each animal was in apparent good health: no clinical signs of disease or distress. The animals were placed in quarantine with daily inspections.
(§1) An aliquot of a representative presently disclosed compound was stored in an amber glass vial and stored at 25° C. […] 0.1 mL of this solution was diluted into 0.9 mL 190 proof alcohol to prepare a 0.5% solution.
30 mg indomethacin (Sigma Cat. I-7378, lot 60K0745) was dissolved in 5 ml 0.1 M NaHCO3 to prepare a 6 mg/mL solution.
48.9 μL arachidonic acid (Sigma Cat. A-9673. lot 057K1620) was dissolved in 450 μL 190 proof alcohol to prepare a 100 mg/mL solution.
The mice were numbered and weighed. The mice in Groups 1, 3, 4 were topically treated on both sides of both ears with either 25 μL 190 proof alcohol, 5% 5-(2-(4-Methoxyphenyl)-1H-benzo[d]imidazol-1-yl)pentylboronic acid, or 0.5% 5-(2-(4-Methoxyphenyl)-1H-benzo[d]imidazol-1-yl)pentylboronic acid. The mice in Group 2 were injected intraperitoneally with 5 mL/kg indomethacin (30 mg/kg). Thirty minutes after 190 proof alcohol, indomethacin, or 5-(2-(4-Methoxyphenyl)-1H-benzo[d]imidazol-1-yl)pentylboronic acid application/administration, 5 μL of the arachidonic acid solution was applied to the dorsal and ventral sides of the right ear. The contralateral ear was treated with 190 proof alcohol. One hour after alcohol/arachidonic acid application, the mice were euthanized, the ears removed and the ear weights recorded.
Significance (p-value) was calculated using Student's T-test. The effect of prophylactic topical treatment with a representative presently disclosed compound on arachidonic acid-induced murine ear edema is shown in FIG. 16.

For data set [2], the target named is T1, phosphodiesterase (Bos taurus, UniProt P11541+P23439).
T1 construct: IC50; other: Phosphodiesterase 6 (bovine retina); nH; other: Hill coefficient, Phosphodiesterase 6
T1 sequence (P11541 2-856): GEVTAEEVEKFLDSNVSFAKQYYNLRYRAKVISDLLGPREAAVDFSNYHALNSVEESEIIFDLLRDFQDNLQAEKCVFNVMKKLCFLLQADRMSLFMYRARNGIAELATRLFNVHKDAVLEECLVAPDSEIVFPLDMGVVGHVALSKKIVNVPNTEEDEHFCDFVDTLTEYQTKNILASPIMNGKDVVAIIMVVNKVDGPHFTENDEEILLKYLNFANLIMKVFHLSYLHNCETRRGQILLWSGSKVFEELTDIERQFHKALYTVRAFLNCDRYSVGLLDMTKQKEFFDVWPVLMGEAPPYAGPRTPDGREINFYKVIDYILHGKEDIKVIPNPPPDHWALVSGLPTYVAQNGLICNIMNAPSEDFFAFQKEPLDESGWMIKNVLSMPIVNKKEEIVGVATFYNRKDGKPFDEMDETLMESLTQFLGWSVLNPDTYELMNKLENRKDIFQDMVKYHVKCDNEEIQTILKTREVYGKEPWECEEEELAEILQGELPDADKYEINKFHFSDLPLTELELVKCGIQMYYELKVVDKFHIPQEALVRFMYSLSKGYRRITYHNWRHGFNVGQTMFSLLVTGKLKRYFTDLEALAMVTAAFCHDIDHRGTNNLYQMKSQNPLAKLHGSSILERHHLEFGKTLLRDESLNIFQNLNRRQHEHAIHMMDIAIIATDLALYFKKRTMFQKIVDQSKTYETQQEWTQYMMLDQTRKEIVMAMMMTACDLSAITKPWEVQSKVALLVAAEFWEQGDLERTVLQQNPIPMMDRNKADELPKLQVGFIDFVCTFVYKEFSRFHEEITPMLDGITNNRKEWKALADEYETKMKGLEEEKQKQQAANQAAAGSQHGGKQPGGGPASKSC
T1 sequence (P23439 2-850): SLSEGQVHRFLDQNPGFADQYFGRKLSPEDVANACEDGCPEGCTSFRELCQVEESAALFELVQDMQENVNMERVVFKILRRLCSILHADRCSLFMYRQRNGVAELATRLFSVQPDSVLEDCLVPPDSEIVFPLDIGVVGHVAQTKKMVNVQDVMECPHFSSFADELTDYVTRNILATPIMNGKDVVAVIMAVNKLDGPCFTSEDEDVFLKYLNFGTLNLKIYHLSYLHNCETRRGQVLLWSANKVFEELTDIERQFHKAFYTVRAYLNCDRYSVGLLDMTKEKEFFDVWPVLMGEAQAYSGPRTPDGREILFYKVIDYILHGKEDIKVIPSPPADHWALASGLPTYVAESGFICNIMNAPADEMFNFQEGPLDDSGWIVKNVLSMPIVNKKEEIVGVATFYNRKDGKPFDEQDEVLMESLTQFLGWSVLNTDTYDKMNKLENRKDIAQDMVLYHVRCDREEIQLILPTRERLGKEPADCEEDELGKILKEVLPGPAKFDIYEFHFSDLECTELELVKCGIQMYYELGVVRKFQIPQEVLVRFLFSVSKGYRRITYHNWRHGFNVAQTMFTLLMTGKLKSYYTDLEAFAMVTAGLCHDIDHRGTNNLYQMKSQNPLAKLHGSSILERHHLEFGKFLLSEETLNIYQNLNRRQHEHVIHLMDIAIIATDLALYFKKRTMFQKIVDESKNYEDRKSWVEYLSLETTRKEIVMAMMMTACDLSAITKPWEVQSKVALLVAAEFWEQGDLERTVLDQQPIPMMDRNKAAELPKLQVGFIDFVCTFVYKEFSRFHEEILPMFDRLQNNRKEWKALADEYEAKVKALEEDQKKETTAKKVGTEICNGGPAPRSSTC
T1 sequence (P04972 whole entry partner): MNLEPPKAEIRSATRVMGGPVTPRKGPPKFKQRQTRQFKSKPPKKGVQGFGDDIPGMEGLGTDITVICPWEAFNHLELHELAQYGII
The data set is described as follows: In vitro phosphodiesterase enzyme assays of Example 39 (IC50 determination). The format is biochemical. As to conditions: Hill coefficient, Phosphodiesterase 6. The procedure: (§2) The in vitro pharmacology of 5-(2-(4-Methoxyphenyl)-1H-benzo[d]imidazol-1-yl)pentylboronic acid was determined with several enzymes as described in Table 19 using the experimental conditions of Table 18.
(§3) Results. The corresponding inhibition curves were also determined (data not shown). Each is within accepted limits of the historic average ±0.5 log units. Table 21 contains the mean experimental values for the […] as performed as described above.

Data set [3] has as its target T2, phosphodiesterase (Homo sapiens, UniProt O76074).
T2 construct: IC50; other: Phosphodiesterase 5 (h); nH; other: Hill coefficient, Phosphodiesterase 5 (h)
Described as above. In kind it is biochemical. The procedure:
as §2, §3

Data set [4] addresses T3, phosphodiesterase (Homo sapiens, UniProt O00408).
T3 construct: IC50; other: Phosphodiesterase 2 (h); nH; other: Hill coefficient, Phosphodiesterase 2 (h)
The data set is described as above. The format is biochemical. The method, then:
as §2, §3

Data set [5] concerns the target T4, phosphodiesterase.
T4 construct: IC50; other: Phosphodiesterase 4 (h); nH; other: Hill coefficient, Phosphodiesterase 4 (h)
Described as above. In kind it is biochemical. As to conditions: Phosphodiesterase 4 (h). The method, then: as §2, §3

Data set [6] is described as follows: Solubility when preparing the topical solution. In kind it is physicochemical. The method, then: as §1

Where “and” joins values, the source holds several entries; their conditions need not be identical. Equal values may be shown once.

Sequence of HERG channel (Q12809 whole entry): as the sequence (Q12809 whole entry) above
T3 sequence (O00408 whole entry): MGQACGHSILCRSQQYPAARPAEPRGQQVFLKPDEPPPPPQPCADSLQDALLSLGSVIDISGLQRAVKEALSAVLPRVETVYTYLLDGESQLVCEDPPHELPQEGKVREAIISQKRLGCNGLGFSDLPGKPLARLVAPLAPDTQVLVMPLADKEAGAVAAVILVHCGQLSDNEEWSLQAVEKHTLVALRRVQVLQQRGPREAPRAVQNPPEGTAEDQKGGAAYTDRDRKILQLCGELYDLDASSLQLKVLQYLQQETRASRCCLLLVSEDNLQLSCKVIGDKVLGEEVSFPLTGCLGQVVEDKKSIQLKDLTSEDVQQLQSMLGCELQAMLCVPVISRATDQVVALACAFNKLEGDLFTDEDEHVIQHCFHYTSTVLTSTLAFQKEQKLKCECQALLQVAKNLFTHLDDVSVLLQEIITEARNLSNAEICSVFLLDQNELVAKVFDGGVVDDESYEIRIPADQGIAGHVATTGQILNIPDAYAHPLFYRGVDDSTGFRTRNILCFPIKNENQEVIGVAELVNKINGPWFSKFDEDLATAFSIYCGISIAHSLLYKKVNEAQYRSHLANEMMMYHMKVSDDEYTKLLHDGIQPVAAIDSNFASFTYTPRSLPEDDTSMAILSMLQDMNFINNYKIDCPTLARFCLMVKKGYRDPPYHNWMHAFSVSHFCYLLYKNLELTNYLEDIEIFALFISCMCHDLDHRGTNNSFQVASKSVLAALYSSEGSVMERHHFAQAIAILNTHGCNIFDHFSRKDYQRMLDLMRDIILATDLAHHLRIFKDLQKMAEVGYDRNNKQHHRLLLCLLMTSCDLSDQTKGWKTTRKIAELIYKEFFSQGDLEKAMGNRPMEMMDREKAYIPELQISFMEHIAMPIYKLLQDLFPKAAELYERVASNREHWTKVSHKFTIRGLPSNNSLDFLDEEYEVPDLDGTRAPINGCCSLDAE

For orientation: IC50 means the concentration that gives 50% inhibition. The term inhibition denotes the percentage by which the read-out fell short of the control. The term % Inhibition denotes the drop in the measured response relative to a control, in per cent. Lower therefore signals a response near the control. With `COc1ccc(-c2nc3ccccc3n2CCCCCB(O)O)cc1` [Example 7, 5-(2-(4-Methoxyphenyl)-1H-benzo[d]imidazol-1-yl)pentylboronic acid], the IC50 in the data set on TNF-α production by PMBC was 200 nM; against phosphodiesterase [3] (Phosphodiesterase 5 (h)), 960 nM; against phosphodiesterase [4] (Phosphodiesterase 2 (h)), 110 nM; on phosphodiesterase [5], 420 nM. Moreover, the “Potency Ranking” value on HERG channel (HERG-channel blocker ranking, from 1 μM test (Table 21)) is “Moderate/High”. In addition, the “HERG-channel blocker potency class” value at HERG channel (general potency ranking system (Roche et al.)) is “moderate/high”. Besides, on hERG, the inhibition at 1 µM came to 49.7%. Further, the “inhibition of the irritant-induced ear edema” value in data set [1] (0.5% solution topical) was 12%; in data set [1] (5% solution topical) it was 46%. Also, the “Change in Ear Weight (mg) Average” value in data set [1] (0.5%) stood at 44.1 mg; in [1] (5%) it was 26.9 mg. Moreover, the “% Inhibition” value is listed as 12.2% in data set [1] (0.5%) and 46.4% in data set [1] (5%). Moreover, the “Ear Weight (mg) Left (−AA)” value was 22 mg (2×) and 20 mg (4×) and 34 mg and 23 mg and 24 mg and 21 mg in data set [1] (0.5%); 23 mg (3×) and 24 mg (2×) and 22 mg (3×) and 20 mg and 21 mg in [1] (5%). Further, the “Ear Weight (mg) Right (+AA)” value is 76 mg and 63 mg and 55 mg and 82 mg and 78 mg and 50 mg and 62 mg and 77 mg and 60 mg and 64 mg in data set [1] (0.5%); 50 mg and 48 mg and 57 mg and 42 mg and 55 mg and 51 mg and 53 mg and 49 mg and 44 mg (2×) in data set [1] (5%). For the same molecule, the nH is 0.9 on phosphodiesterase [2]; 0.7 at phosphodiesterase [3] (Hill coefficient, Phosphodiesterase 5(h)); 0.8 at phosphodiesterase [4] (Hill coefficient, Phosphodiesterase 2(h)). In addition, the solubility in acetone result in data set [6] is recorded as “not soluble in acetone”.
